Measurements from ChEMBL document CHEMBL4507264, “Data for DCP probe BAY-7598” (2021).

Tests used:
[1] = molecular target: Serine/threonine-protein kinase 38 (Homo sapiens) (UniProt Q15208); details: Compound concentration 1000.0 nM
[2] = molecular target: Phosphatidylinositol 4-phosphate 5-kinase type-1 alpha (Homo sapiens) (UniProt Q99755); details: Compound concentration 1000.0 nM
[3] = system: Phosphatidylinositol 4,5-bisphosphate 3-kinase catalytic subunit alpha isoform (Homo sapiens), P42336 [E545K]; details: Compound concentration 1000.0 nM
[4] = molecular target: Dual specificity testis-specific protein kinase 1 (Homo sapiens) (UniProt Q15569); details: Compound concentration 1000.0 nM
Chain of Dual specificity testis-specific protein kinase 1 (Homo sapiens) (Q15569 whole entry, looked up): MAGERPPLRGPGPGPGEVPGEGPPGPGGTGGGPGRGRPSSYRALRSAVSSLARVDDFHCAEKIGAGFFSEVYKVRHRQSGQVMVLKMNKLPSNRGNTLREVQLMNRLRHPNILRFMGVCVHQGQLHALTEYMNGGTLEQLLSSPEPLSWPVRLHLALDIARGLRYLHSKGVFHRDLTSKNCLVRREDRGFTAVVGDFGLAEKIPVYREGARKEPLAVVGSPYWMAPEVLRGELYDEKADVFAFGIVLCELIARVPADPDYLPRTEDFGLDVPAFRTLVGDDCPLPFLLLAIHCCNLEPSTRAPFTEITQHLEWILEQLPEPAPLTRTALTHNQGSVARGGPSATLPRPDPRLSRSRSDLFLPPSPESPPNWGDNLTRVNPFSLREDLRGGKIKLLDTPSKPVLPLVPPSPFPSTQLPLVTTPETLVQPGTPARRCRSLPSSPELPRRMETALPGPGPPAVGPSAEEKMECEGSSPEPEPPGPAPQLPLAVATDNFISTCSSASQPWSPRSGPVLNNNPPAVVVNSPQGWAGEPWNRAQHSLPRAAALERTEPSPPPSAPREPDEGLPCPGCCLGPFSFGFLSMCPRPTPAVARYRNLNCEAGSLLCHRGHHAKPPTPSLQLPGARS

[5] = molecular target: G protein-coupled receptor kinase 4 (Homo sapiens) (UniProt P32298); details: Compound concentration 1000.0 nM
[6] = molecular target: Ribosomal protein S6 kinase alpha-6 (Homo sapiens) (UniProt Q9UK32); details: Compound concentration 1000.0 nM
[7] = molecular target: Ribosomal protein S6 kinase alpha-1 (Homo sapiens) (UniProt Q15418); details: Compound concentration 1000.0 nM
[8] = molecular target: Serine/threonine-protein kinase SIK3 (Homo sapiens) (UniProt Q9Y2K2); details: Compound concentration 1000.0 nM
[9] = system: Receptor-type tyrosine-protein kinase FLT3 (Homo sapiens), P36888 [D835V]; details: Compound concentration 1000.0 nM
[10] = molecular target: Serine/threonine-protein kinase 25 (Homo sapiens) (UniProt O00506); details: Compound concentration 1000.0 nM
Chain of Serine/threonine-protein kinase 25 (Homo sapiens) (O00506 whole entry, looked up): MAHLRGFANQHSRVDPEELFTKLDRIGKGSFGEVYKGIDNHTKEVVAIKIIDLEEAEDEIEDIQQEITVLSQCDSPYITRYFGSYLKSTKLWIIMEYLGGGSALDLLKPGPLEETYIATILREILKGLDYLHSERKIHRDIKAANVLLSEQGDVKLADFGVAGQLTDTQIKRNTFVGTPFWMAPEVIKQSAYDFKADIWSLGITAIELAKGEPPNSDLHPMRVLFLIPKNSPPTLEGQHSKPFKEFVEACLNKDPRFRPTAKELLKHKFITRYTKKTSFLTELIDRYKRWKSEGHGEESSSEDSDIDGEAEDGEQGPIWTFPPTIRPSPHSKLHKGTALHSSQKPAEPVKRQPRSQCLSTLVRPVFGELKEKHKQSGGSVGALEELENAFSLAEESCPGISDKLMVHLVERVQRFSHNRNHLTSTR

[11] = molecular target: Ribosomal protein S6 kinase alpha-3 (Homo sapiens) (UniProt P51812); details: Compound concentration 1000.0 nM
[12] = molecular target: LIM domain kinase 1 (Homo sapiens) (UniProt P53667); details: Compound concentration 1000.0 nM
[13] = system: Epidermal growth factor receptor (Homo sapiens), P00533 [UNDEFINED MUTATION]; details: Compound concentration 1000.0 nM
[14] = system: Tyrosine-protein kinase ABL1 (Homo sapiens), P00519 [Q252H]; details: Compound concentration 1000.0 nM
[15] = molecular target: Interferon-induced, double-stranded RNA-activated protein kinase (Homo sapiens) (UniProt P19525); details: Compound concentration 1000.0 nM
Chain of Interferon-induced, double-stranded RNA-activated protein kinase (Homo sapiens) (P19525 whole entry): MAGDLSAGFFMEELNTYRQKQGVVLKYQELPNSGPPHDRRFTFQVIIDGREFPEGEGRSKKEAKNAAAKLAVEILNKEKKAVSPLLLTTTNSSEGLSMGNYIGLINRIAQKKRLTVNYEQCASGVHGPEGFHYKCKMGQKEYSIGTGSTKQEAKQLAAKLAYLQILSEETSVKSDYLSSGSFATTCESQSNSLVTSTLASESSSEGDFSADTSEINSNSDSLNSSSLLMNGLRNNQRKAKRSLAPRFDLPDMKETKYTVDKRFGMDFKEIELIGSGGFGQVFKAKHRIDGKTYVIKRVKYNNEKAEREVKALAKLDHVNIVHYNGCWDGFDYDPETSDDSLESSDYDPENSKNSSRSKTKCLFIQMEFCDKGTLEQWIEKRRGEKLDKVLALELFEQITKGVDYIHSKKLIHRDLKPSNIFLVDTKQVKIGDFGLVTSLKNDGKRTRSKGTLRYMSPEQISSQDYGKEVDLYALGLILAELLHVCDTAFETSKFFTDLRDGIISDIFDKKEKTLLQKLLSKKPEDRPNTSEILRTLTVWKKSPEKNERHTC

[16] = molecular target: Protein kinase C delta type (Homo sapiens) (UniProt Q05655); details: Compound concentration 1000.0 nM
[17] = molecular target: Serine/threonine-protein kinase DCLK1 (Homo sapiens) (UniProt O15075); details: Compound concentration 1000.0 nM
[18] = molecular target: Calcium/calmodulin-dependent protein kinase type II subunit alpha (Homo sapiens) (UniProt Q9UQM7); details: Compound concentration 1000.0 nM
[19] = molecular target: MAP kinase-interacting serine/threonine-protein kinase 1 (Homo sapiens) (UniProt Q9BUB5); details: Compound concentration 1000.0 nM
[20] = molecular target: Serine/threonine-protein kinase mTOR (Homo sapiens) (UniProt P42345); details: Compound concentration 1000.0 nM
[21] = molecular target: Tyrosine-protein kinase Srms (Homo sapiens) (UniProt Q9H3Y6); details: Compound concentration 1000.0 nM
[22] = molecular target: Cyclin-dependent kinase 2 homolog (Plasmodium falciparum (isolate 3D7)) (UniProt P61075); details: Compound concentration 1000.0 nM
[23] = molecular target: Tyrosine-protein kinase Blk (Homo sapiens) (UniProt P51451); details: Compound concentration 1000.0 nM
Chain of Tyrosine-protein kinase Blk (Homo sapiens) (P51451 2-505 limits assumed): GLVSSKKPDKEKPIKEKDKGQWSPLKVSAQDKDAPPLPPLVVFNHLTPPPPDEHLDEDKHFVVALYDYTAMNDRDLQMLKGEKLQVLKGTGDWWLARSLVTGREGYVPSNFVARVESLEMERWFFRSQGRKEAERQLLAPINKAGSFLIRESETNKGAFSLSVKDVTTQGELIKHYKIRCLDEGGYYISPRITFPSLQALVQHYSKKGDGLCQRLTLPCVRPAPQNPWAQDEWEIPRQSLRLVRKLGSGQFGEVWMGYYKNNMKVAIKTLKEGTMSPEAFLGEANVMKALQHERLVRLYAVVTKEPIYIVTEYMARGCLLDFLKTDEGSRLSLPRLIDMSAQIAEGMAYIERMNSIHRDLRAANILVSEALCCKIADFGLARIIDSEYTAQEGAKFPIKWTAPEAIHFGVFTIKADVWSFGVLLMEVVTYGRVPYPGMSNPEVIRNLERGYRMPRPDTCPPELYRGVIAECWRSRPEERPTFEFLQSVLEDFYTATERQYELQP

[24] = molecular target: Casein kinase II subunit alpha' (Homo sapiens) (UniProt P19784); details: Compound concentration 1000.0 nM
[25] = molecular target: Activin receptor type-2B (Homo sapiens) (UniProt Q13705); details: Compound concentration 1000.0 nM
[26] = molecular target: Serine/threonine-protein kinase 36 (Homo sapiens) (UniProt Q9NRP7); details: Compound concentration 1000.0 nM
[27] = molecular target: Sodium-dependent serotonin transporter (Homo sapiens) (UniProt P31645); details: Compound concentration 10.0 uM
[28] = molecular target: Mitogen-activated protein kinase 12 (Homo sapiens) (UniProt P53778); details: Compound concentration 1000.0 nM
Chain of Mitogen-activated protein kinase 12 (Homo sapiens) (P53778 whole entry): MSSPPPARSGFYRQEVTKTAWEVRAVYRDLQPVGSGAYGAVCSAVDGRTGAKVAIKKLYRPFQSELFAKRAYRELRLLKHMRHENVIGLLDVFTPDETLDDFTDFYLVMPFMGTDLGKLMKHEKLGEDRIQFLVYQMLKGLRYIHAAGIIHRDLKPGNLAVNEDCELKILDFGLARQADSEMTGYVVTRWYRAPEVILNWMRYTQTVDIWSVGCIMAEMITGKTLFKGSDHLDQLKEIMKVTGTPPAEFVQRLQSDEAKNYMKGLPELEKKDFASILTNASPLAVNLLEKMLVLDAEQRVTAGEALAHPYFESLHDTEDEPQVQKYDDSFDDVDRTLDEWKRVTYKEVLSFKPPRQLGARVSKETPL

[29] = molecular target: T1, Muscarinic acetylcholine receptor M1 (Homo sapiens) (UniProt P11229); details: Compound concentration 10.0 uM
T1 sequence (whole entry): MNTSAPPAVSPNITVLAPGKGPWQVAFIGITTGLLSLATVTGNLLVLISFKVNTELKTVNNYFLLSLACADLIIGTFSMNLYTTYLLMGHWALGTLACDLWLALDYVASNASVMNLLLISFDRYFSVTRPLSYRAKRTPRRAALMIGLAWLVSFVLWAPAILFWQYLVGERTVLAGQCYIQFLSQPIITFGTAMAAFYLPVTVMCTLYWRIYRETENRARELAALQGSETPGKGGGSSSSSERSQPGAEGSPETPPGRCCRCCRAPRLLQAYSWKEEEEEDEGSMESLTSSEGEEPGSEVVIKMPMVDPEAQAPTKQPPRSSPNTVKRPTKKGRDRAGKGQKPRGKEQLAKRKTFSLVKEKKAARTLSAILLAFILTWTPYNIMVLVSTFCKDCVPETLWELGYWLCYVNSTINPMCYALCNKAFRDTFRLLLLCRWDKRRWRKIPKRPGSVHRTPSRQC

[30] = molecular target: Serine/threonine-protein kinase TAO1 (Homo sapiens) (UniProt Q7L7X3); details: Compound concentration 1000.0 nM
[31] = molecular target: Tyrosine-protein kinase JAK1 (Homo sapiens) (UniProt P23458); details: Compound concentration 1000.0 nM
[32] = molecular target: Serine/threonine-protein kinase B-raf (Homo sapiens) (UniProt P15056); details: Compound concentration 1000.0 nM
[33] = molecular target: Serine/threonine-protein kinase D3 (Homo sapiens) (UniProt O94806); details: Compound concentration 1000.0 nM
Chain of Serine/threonine-protein kinase D3 (Homo sapiens) (O94806 whole entry): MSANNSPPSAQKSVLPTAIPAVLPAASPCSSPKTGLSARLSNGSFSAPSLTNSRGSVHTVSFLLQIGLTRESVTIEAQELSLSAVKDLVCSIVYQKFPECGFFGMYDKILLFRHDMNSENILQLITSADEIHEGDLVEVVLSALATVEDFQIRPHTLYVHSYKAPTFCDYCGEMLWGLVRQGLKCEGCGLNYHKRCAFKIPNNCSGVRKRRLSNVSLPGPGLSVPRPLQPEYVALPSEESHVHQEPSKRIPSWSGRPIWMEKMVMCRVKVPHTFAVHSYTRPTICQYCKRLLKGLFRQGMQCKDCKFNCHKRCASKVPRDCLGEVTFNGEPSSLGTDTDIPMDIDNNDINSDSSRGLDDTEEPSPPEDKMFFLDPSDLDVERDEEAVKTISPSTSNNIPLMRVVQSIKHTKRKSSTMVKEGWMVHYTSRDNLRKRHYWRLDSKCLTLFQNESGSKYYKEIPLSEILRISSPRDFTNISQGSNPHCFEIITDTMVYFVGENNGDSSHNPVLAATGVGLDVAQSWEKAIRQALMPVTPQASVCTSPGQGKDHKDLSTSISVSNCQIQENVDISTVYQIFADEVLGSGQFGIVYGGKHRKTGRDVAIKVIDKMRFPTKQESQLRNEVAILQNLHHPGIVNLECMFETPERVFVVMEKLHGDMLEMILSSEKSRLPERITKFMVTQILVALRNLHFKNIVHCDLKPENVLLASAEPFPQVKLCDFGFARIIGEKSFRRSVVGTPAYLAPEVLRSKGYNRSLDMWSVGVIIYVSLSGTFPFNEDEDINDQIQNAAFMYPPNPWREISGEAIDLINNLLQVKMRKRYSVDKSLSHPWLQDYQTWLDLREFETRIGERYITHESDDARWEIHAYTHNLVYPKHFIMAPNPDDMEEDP

[34] = molecular target: Dual specificity protein kinase TTK (Homo sapiens) (UniProt P33981); details: Compound concentration 1000.0 nM
[35] = system: Epidermal growth factor receptor (Homo sapiens), P00533 [G719C]; details: Compound concentration 1000.0 nM
[36] = molecular target: Serine/threonine-protein kinase 38-like (Homo sapiens) (UniProt Q9Y2H1); details: Compound concentration 1000.0 nM
[37] = molecular target: Serine/threonine-protein kinase N1 (Homo sapiens) (UniProt Q16512); details: Compound concentration 1000.0 nM
Chain of Serine/threonine-protein kinase N1 (Homo sapiens) (Q16512 2-942 limits assumed): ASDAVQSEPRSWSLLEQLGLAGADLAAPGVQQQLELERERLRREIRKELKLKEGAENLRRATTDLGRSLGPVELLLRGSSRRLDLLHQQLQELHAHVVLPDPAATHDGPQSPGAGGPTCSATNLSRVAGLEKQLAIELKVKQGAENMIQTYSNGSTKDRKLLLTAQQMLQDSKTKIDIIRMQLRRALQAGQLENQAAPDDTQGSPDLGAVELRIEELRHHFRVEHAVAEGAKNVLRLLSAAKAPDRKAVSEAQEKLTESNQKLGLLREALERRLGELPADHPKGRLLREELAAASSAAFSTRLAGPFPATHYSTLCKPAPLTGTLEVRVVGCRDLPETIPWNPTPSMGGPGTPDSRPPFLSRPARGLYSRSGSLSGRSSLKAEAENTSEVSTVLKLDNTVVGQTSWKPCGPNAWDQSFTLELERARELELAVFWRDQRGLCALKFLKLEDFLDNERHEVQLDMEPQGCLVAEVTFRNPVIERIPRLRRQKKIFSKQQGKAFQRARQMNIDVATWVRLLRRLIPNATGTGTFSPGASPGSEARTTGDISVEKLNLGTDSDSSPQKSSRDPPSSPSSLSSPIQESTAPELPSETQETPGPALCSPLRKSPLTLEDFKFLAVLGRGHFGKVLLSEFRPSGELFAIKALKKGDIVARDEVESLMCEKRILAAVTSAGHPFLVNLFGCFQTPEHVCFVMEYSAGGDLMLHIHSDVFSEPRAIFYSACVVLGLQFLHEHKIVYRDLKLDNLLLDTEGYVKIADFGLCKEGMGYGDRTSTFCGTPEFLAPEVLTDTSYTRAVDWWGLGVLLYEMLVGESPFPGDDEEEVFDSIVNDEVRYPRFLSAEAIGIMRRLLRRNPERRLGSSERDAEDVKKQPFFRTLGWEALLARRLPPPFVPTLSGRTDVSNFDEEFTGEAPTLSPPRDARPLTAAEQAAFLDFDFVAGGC

[38] = molecular target: cAMP-dependent protein kinase catalytic subunit alpha (Homo sapiens) (UniProt P17612); details: Compound concentration 1000.0 nM

Chain of Serine/threonine-protein kinase 38 (Homo sapiens) (Q15208 2-465 limits assumed): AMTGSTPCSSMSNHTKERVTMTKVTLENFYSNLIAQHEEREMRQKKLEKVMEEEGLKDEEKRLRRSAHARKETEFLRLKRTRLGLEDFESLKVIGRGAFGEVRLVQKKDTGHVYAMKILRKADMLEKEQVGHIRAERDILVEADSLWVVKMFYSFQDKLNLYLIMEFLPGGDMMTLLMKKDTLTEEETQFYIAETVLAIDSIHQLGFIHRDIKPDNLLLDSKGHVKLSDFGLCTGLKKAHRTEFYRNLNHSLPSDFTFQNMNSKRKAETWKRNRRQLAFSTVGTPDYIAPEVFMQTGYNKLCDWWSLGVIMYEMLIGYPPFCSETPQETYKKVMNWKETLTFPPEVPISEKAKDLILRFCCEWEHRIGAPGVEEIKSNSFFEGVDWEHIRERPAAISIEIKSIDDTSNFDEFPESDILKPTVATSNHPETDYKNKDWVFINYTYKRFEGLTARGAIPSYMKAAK

O=C(O)[C@@H]1[C@@H](Cn2nnc3ccccc3c2=O)CC[C@H]1C(=O)c1ccc(OCCC2CCOCC2)cc1 [BAY-694]
inactive: residual activity [1] 95% | residual activity [2] 94% | residual activity [3] 80% | residual activity [4] 94% | residual activity [5] 100% | residual activity [6] 100% | residual activity [7] 92% | residual activity [8] 84% | residual activity [9] 93% | residual activity [10] 87% | residual activity [11] 100% | residual activity [12] 100% | residual activity [13] 100% | residual activity [14] 96% | residual activity [15] 100% | residual activity [16] 100% | residual activity [17] 100% | residual activity [18] 100% | residual activity [19] 93% | residual activity [20] 96% | residual activity [21] 100% | residual activity [22] 100% | residual activity [23] 95% | residual activity [24] 88% | residual activity [25] 100% | residual activity [26] 91% | inhibition [27] 10.2% | residual activity [28] 100% | inhibition [29] 6.4% | residual activity [30] 100% | residual activity [31] 79% | residual activity [32] 100% | residual activity [33] 100% | residual activity [34] 89% | residual activity [35] 90% | residual activity [36] 100% | residual activity [37] 97% | residual activity [38] 90%

O=C(O)[C@H]1[C@H](Cn2nnc3ccccc3c2=O)CC[C@@H]1C(=O)c1ccc(OCCC2CCOCC2)cc1 [BAY-7598]
inactive: residual activity [1] 88% | residual activity [2] 88% | residual activity [3] 72% | residual activity [4] 100% | residual activity [5] 82% | residual activity [6] 86% | residual activity [7] 95% | residual activity [8] 61% | residual activity [9] 92% | residual activity [10] 90% | residual activity [11] 81% | residual activity [12] 100% | residual activity [13] 100% | residual activity [14] 98% | residual activity [15] 91% | residual activity [16] 100% | residual activity [17] 73% | residual activity [18] 100% | residual activity [19] 96% | residual activity [20] 100% | residual activity [21] 100% | residual activity [22] 91% | residual activity [23] 100% | residual activity [24] 79% | residual activity [25] 79% | residual activity [26] 100% | inhibition [27] 13.9% | residual activity [28] 93% | inhibition [29] 18% | residual activity [30] 100% | residual activity [31] 88% | residual activity [32] 100% | residual activity [33] 88% | residual activity [34] 83% | residual activity [35] 81% | residual activity [36] 96% | residual activity [37] 88% | residual activity [38] 97%
